The target in data set [1] is T1, SSTR2 receptor (U2OS-SSTR2 cells) (Homo sapiens, UniProt P30874).
T1 construct: expressed in transfected cells; host or cells: U2OS human osteosarcoma cells stably expressing SSTR2
The data set is described as follows: Competitive binding assay against [^177Lu]Lu-JR11. Conditions: radioligand [^177Lu]Lu-JR11 10^−9 M, unlabeled compound 10^−12 to 10^−5 M, 90 min, 37 °C, triplicate. The method, then:
Human osteosarcoma cells (U2OS) stably expressing the SSTR2 receptor were used in all in vitro cell assays. Cells were cultured in Dulbecco’s modified Eagle’s medium (DMEM) from Gibco (Paisley, UK) supplemented with 2 mM L-glutamine, 10% fetal bovine serum (FBS), 50 units/mL penicillin, and 50 μg/mL streptomycin (Sigma Aldrich; Haarlerbergweg, The Netherlands) and maintained at 37 °C and in a 5% CO2 humidified chamber. Passages were performed weekly using trypsin/EDTA (0.05%/0.02% w/v).
Competitive binding experiments against [^177Lu]Lu-JR11 were performed with 8a and 8b in U2OS-SSTR2 cells. Cells were seeded in a 24-well plate 24 h in advance (2 × 10^5 cells/well). On the day of the experiment, medium was removed, and the cells were washed once with PBS (Gibco). Then, solutions containing unlabeled compound 8a or 8b in increasing concentrations (10^−12 to 10^−5 M) in internalization medium (DMEM media, 20 mM HEPES, 1% BSA, pH 7.4) were added, followed by the addition of [^177Lu]Lu-JR11 (10^−9 M). For each concentration, experiments were performed in triplicate. Cells were incubated at 37 °C for 90 min. After incubation, medium was removed, and cells were washed once with PBS and lysed with 0.5 M sodium hydroxide (NaOH) for 10 min at rt. The lysate was transferred to counting tubes, and measurement was performed using the γ-counter.

The nature of data set [2]: Stability in PBS. It is filed as physicochemical. Conditions: % intact radiolabeled ligand, ~3 MBq in PBS (300 μL), 37 °C, radio-HPLC, n = 1. The method, then: (§1) The ^177Lu-labeled compounds (~3 MBq) were incubated in PBS (300 μL) at 37 °C. The stability of the radiolabeled peptides was verified by radio-HPLC at 1, 4, and 24 h. The stability in serum was determined by incubating the radiolabeled compounds (~3 MBq) into 150 μL of mouse serum (Merck; Haarlerbergweg, The Netherlands) at 37 °C. At 1, 4, and 24 h post-incubation, the proteins were precipitated by adding an aliquot of 35 μL of the mixture to an equal volume of ACN. The vial was vortexed and centrifuged for 20 min. stability was monitored by radio-HPLC (Figures S4 and S5).

Data set [3] is described as follows: Stability in mouse serum. Particulars: % intact radiolabeled ligand, ~3 MBq in 150 μL mouse serum, 37 °C, ACN protein precipitation, radio-HPLC, n = 1. The data set is classed as in vitro ADME. The method, then: as §1
A short description of data set [4]: Determination of lipophilicity (LogD7.4, shake-flask). Particulars: n-octanol/PBS (1:1), pH 7.4, PBS/n-octanol 1:1 (1 mL), ~1.5 MBq, gamma counter, n = 3 (triplicate), mean ± SEM, read-out: Log D7.4. The data set is classed as physicochemical. The method, then: The distribution coefficient (LogD7.4) of the ^177Lu-labeled peptides was determined by the shake-flask method. For each radioligand, the experiment was performed in triplicate. The radiolabeled compound (~1.5 MBq) was added to a solution of phosphate buffered saline (PBS)/n-octanol (1 mL, v:v = 1:1) in eppendorf vials. The vials were vortexed vigorously and centrifuged at 10,000 rpm for 3 min. The n-octanol phase was separated from the aqueous phase, poured into new vials, and centrifuged for 15 min. Samples from each phase (10 μL) were measured using a gamma counter. The LogD7.4 value was calculated using the following equation: […].

A short description of data set [5]: In vivo SPECT/CT imaging. Conditions: mouse, H69 xenograft tumor, iv, 20 MBq/0.5 nmol per animal, total radioactivity.
Data set [6] concerns mice bearing SSTR2-positive H69 xenografts. Nature of the data set: In vivo SPECT/CT imaging. Conditions: H69 xenograft mice, i.v. 20 MBq/0.5 nmol, n = 4.
Data set [7] has as its target human albumin (Homo sapiens, UniProt P02768). The data set is described as follows: Albumin binding properties (ultrafiltration). Conditions: ~1 MBq in human albumin/PBS (500 µL, v:v = 1:4), 1 h, 37 °C; Centrifree ultrafiltration 30 KDa; gamma counter; n = 3, mean ± SEM.

Structures are written as SMILES. Positions of bridges follow the written chain, without caps; N, C: chain ends. Non-standard residues stand in square brackets, D forms with d. Residues, ends and D or L forms follow the SMILES beside them. *: point of attachment. DOTA = O=C(O)CN1CCN(CC(=O)O)CCN(CC(=O)*)CCN(CC(=O)O)CC1; dPhe(4-NHCONH2) = NC(=O)Nc1ccc(C[C@@H](N)C(=O)O)cc1; Butanoyl(4-(4-MeO-phenyl)) = COc1ccc(CCCC(=O)*)cc1; Butanoyl(4-(4-I-phenyl)) = O=C(CCCc1ccc(I)cc1)*; Dihydroorotyl(S) = O=C1C[C@@H](C(=O)*)NC(=O)N1; Phe(4-Cl) = N[C@@H](Cc1ccc(Cl)cc1)C(=O)O; Phe(4-NH2) = Nc1ccc(C[C@H](N)C(=O)O)cc1

Experimental findings from PMC9503898, “Synthesis and Evaluation of Two Long-Acting SSTR2 Antagonists for Radionuclide Therapy of Neuroendocrine Tumors” (Pharmaceuticals, 2022) are described below.

T1 sequence (P30874 whole entry): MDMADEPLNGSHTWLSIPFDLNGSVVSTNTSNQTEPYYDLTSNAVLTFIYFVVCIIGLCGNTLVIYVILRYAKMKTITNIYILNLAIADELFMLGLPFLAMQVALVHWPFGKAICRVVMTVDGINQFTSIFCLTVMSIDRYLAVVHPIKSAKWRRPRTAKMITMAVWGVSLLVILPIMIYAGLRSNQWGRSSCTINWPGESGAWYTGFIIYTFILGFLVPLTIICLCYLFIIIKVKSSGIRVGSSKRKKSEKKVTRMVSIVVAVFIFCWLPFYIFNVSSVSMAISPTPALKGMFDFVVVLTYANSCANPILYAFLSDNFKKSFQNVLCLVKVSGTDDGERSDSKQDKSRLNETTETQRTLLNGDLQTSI
human albumin, sequence (P02768 25-609): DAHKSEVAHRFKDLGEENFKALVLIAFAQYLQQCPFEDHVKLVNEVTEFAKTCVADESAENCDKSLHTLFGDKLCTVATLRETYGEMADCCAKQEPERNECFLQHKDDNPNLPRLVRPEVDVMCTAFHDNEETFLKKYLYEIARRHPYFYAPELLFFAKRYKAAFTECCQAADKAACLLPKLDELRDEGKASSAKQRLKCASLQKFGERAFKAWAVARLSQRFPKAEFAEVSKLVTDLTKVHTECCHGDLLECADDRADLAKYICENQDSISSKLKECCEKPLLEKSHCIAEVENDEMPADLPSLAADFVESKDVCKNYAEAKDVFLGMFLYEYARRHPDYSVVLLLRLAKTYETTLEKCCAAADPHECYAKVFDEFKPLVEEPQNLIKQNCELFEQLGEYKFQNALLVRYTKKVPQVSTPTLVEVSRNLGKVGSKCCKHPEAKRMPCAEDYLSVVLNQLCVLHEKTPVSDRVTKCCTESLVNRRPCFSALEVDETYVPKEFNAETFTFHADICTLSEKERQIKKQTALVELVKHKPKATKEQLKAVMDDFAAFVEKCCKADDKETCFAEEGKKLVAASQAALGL

In general, IC50 refers to the midpoint of a concentration-inhibition curve. The compound `C[C@@H](O)[C@@H]1NC(=O)[C@H](CCCCN)NC(=O)[C@@H](Cc2ccc(NC(N)=O)cc2)NC(=O)[C@H](Cc2ccc(NC(=O)[C@@H]3CC(=O)NC(=O)N3)cc2)NC(=O)[C@H](NC(=O)[C@H](Cc2ccc(Cl)cc2)NC(=O)[C@H](CCCCNC(=O)CCCc2ccc(I)cc2)NC(=O)CN2CCN(CC(=O)O)CCN(CC(=O)O)CCN(CC(=O)O)CC2)CSSC[C@@H](C(=O)N[C@H](Cc2ccc(O)cc2)C(N)=O)NC1=O` [8a, DOTA-Lys(4-(p-iodophenyl)butyryl)-Phe(4-Cl)-c[D-Cys-Aph(Hor)-D-Aph(Cbm)-Lys-Thr-Cys]-D-Tyr-NH2] ({DOTA}-K(Butanoyl(4-(4-I-phenyl)))[Phe(4-Cl)][dC][Phe(4-NH2)](Dihydroorotyl(S))[dPhe(4-NHCONH2)]KTC[dY]-NH2; disulfide 3-8) came in with an IC50 in data set [1] of 80 ± 0.43 nM.
Take `COc1ccc(CCCC(=O)NCCCC[C@H](NC(=O)CN2CCN(CC(=O)O)CCN(CC(=O)O)CCN(CC(=O)O)CC2)C(=O)N[C@@H](Cc2ccc(Cl)cc2)C(=O)N[C@@H]2CSSC[C@@H](C(=O)N[C@H](Cc3ccc(O)cc3)C(N)=O)NC(=O)[C@H]([C@@H](C)O)NC(=O)[C@H](CCCCN)NC(=O)[C@@H](Cc3ccc(NC(N)=O)cc3)NC(=O)[C@H](Cc3ccc(NC(=O)[C@@H]4CC(=O)NC(=O)N4)cc3)NC2=O)cc1` [8b, DOTA-Lys(4-(p-methoxyphenyl)butyryl)-Phe(4-Cl)-c[D-Cys-Aph(Hor)-D-Aph(Cbm)-Lys-Thr-Cys]-D-Tyr-NH2] ({DOTA}-K(Butanoyl(4-(4-MeO-phenyl)))[Phe(4-Cl)][dC][Phe(4-NH2)](Dihydroorotyl(S))[dPhe(4-NHCONH2)]KTC[dY]-NH2; disulfide 3-8): the half-inhibitory concentration (IC50) in data set [1] was determined as 130 ± 0.3 nM.
`C[C@@H](O)[C@@H]1NC(=O)[C@H](CCCCN)NC(=O)[C@@H](Cc2ccc(NC(N)=O)cc2)NC(=O)[C@H](Cc2ccc(NC(=O)[C@@H]3CC(=O)NC(=O)N3)cc2)NC(=O)[C@H](NC(=O)[C@H](Cc2ccc(Cl)cc2)NC(=O)CN2CCN(CC(=O)O)CCN(CC(=O)O)CCN(CC(=O)O)CC2)CSSC[C@@H](C(=O)N[C@H](Cc2ccc(O)cc2)C(N)=O)NC1=O` [JR11, reference compound] ({DOTA}-[Phe(4-Cl)][dC][Phe(4-NH2)](Dihydroorotyl(S))[dPhe(4-NHCONH2)]KTC[dY]-NH2; disulfide 2-7): the 50% inhibitory concentration (IC50) in data set [1] is 2.7 ± 0.26 nM.
A word on the amount remaining: it is the share of the starting amount still present when the sample was taken. Read a high amount remaining as less turnover. On to `COc1ccc(CCCC(=O)NCCCC[C@H](NC(=O)CN2CCN(CC(=O)O)CCN(CC(=O)O)CCN(CC(=O)O)CC2)C(=O)N[C@@H](Cc2ccc(Cl)cc2)C(=O)N[C@@H]2CSSC[C@@H](C(=O)N[C@H](Cc3ccc(O)cc3)C(N)=O)NC(=O)[C@H]([C@@H](C)O)NC(=O)[C@H](CCCCN)NC(=O)[C@@H](Cc3ccc(NC(N)=O)cc3)NC(=O)[C@H](Cc3ccc(NC(=O)[C@@H]4CC(=O)NC(=O)N4)cc3)NC2=O)cc1` [[^177Lu]Lu-8b, metal not drawn] ({DOTA}-K(Butanoyl(4-(4-MeO-phenyl)))[Phe(4-Cl)][dC][Phe(4-NH2)](Dihydroorotyl(S))[dPhe(4-NHCONH2)]KTC[dY]-NH2; disulfide 3-8), for which, in data set [2] (1 h), the “Stability in PBS (%) 1 h” value stood at 97.1%. For the same compound, in data set [2] (4 h), the “Stability in PBS (%) 4 h” value turned out to be 96.4%. Besides, the “Stability in PBS (%) 24 h” value in data set [2] (24 h) is listed as 95.4%. The amount remaining at 1 h in data set [3] (1 h) was determined as 98%. The fraction remaining at 4 h in data set [3] (4 h) came to 97.9%. This compound gave an amount remaining at 24 h in data set [3] (24 h) of 98.5%. The logD in data set [4] is -2.07 ± 0.02. For the same compound, in data set [5], the tissue uptake per volume at 4 h is 2.7 ± 0.2 %ID/mL, the tissue uptake per volume at 24 h was 1 ± 0.1 %ID/mL, the tissue uptake per volume at 48 h worked out at 0.8 ± 0.1 %ID/mL and the tissue uptake per volume at 72 h was found to be 0.6 ± 0.1 %ID/mL. For the same compound, in data set [6] (4 h post-injection), the “SPECT quantification, kidneys (K), 4 h” value worked out at 14.8 ± 1.2 % ID/mL. Moreover, in data set [6] (24 h post-injection), the “SPECT quantification, kidneys (K), 24 h” value was 7.5 ± 0.4 % ID/mL. Moreover, in data set [6] (48 h post-injection), the “SPECT quantification, kidneys (K), 48 h” value was 4.3 ± 0.3 % ID/mL. Besides, the “SPECT quantification, kidneys (K), 72 h” value in data set [6] (72 h post-injection) worked out at 3.1 ± 0.5 % ID/mL. In data set [7], the “Protein-Bound Fraction (%)” value amounted to 56.3 ± 1.4%.
